Source: US12534748B2, “Engineered beta-subunit of tryptophan synthase for production of non-canonical amino acids” (California Institute of Technology, priority 2015, dated 2026)
Changes are numbered by the printed parent chain.

What was measured:
[1] = molecular target: T1, Thermotoga maritima TrpB variant TmTrpB^0B2 (P14L, P19G, I69V, L274S, T292S) (Thermotoga maritima, UniProt P50909, I69V/L274S/P14L/P19G/T292S); assay: Tryptophan formation from L-serine and indole, kinetics of TmTrpB^0B2
T1 sequence (P50909 with tags, fused parts or gaps P14L/P19G/I69V/L274S/T292S): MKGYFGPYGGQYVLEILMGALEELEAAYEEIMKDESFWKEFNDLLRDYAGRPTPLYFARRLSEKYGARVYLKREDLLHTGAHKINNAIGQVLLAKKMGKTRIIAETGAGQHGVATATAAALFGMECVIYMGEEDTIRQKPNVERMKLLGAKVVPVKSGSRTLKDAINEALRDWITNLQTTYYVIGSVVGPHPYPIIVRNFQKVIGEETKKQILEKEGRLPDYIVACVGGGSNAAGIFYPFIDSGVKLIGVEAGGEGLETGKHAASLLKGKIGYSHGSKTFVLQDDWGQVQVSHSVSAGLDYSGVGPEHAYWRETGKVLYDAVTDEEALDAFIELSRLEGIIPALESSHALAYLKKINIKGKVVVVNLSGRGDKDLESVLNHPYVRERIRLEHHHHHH
Text: Kinetics and UV-Vis Spectroscopy.
Cloning, expression, and purification of the different orthologs.
The next homolog, TmTrpB, was examined.

[2] = molecular target: T2, Thermotoga maritima TrpB variant TmTrpB^T292S, SEQ ID NO: 26 (Thermotoga maritima, UniProt P50909, T292S); assay: Tryptophan formation from L-serine and indole, kinetics of TmTrpB^T292S; assay type: biochemical
T2 sequence (P50909 with tags, fused parts or gaps T292S): T1 sequence (P50909 with tags, fused parts or gaps P14L/P19G/I69V/L274S/T292S) with L14P, G19P, V69I, S274L
Protocol: Kinetics and UV-Vis Spectroscopy. Data were collected between 550 and 250 nm on a UV1800 Shimadzu spectrophotometer (Shimadzu) using 0.25-20 μM of enzyme in 200 mM potassium phosphate (pH 8.0) in a quartz cuvette. Samples were incubated at 75° C. for >3 min to ensure a stable temperature was reached. PfTrpB activity (kcat) was measured by monitoring tryptophan formation at 290 nm using Δe290=1.89 mM^−1·cm^−1.
Cloning, expression, and purification of the different orthologs. The genes encoding AfTrpB (UNIPROT ID O28672), TmTrpB (UNIPROT ID P50909) and EcTrpB (UNIPROT ID P0A879) were obtained from IDT and cloned into pET22(b)+ using Gibson Assembly. Protein expression was carried out in E. coli BL21 E. cloni Express cells (Lucigen) by inoculating 10-mL Terrific Broth (with 100 μg/mL ampicillin (TBamp)) with a single colony and incubated over night at 37° C. and 250 rpm. These overnight cultures were used to scale up to 500-mL TBamp expression cultures, which were grown by shaking at 250 rpm and 37° C. for ˜3 h or until an OD600 of 0.8 was reached. Then, after chilling the cultures on ice for 20 min, induction was conducted by the addition of IPTG to a final concentration of 1 mM. Induced cultures were allowed to grow at 250 rpm and 20° C. for another 20 h. After centrifugation, pelleted cells were frozen and stored at −20° C. until further use. For protein purification, thawed cells were resuspended in 50 mM potassium phosphate buffer (KPi, pH 8, 20 mM imidazole and 100 mM NaCl (buffer A)), with 200 μM PLP. Lysis was performed by adding BugBuster (Novagen) and incubating for 15 min at 37° C. Once cells were lysed, they were centrifuged to obtain the soluble protein-rich fraction. In the case of TmTrpB (but not for AfTrpB or EcTrpB), the lysate was then incubated at 75° C. for 20 min and was subjected to another centrifugation step. […]
The next homolog, TmTrpB, was examined. […] The variants without the T292S mutation lacked this probative absorbance peak, but the decrease at 428 nm and concomitant increase at 350 nm are consistent with a similar, though less pronounced activation.

In the case of `c1ccc2[nH]ccc2c1` [indole], the kcat ([1]; 75° C.) is reported as 0.11 s⁻¹, the “kcat relative to wild-type activity” value ([1]; of the wild-type activity) is reported as 10% and the kcat ([2]; 75° C.) is reported as 5.8 s⁻¹. For the same compound, the “increase in kcat more than TmTrpA binding” value ([2]; relative to TmTrpA binding (TmTrpS)) was 3 fold and the increase in kcat ([2]; with respect to wild type) was 4 fold.
